Data on 7 compounds can be found in US11319313B2, “Crystalline forms of deuterium-enriched pioglitazone” (Poxel SA, priority 2020, dated 2022).

Data set [1] can be described thus: pH-dependent solubility of crystalline salts (48 h equilibration, HPLC). Conditions: for Solubility: room temperature, 48 hours; for solubility at 48 h: 22 °C, thermodynamic from solid. The format is physicochemical. The procedure:
The pH-dependent solubility profiles of the crystalline DCl salt form of deuterium-enriched (R)-pioglitazone, and crystalline pioglitazone HCl were determined at room temperature (about 21° C. to about 23° C.) in the pH range of 0.3-7.6. For the crystalline HCl salt form of deuterium-enriched (R)-pioglitazone, the pH-dependent solubility profile was measured at room temperature (about 21° C. to about 23° C.) in the pH range of 0.3-3.5.
For the crystalline DCl salt form of deuterium-enriched pioglitazone, the pH-dependent solubility profile was measured at room temperature (about 21° C. to about 23° C.) in the pH range of 0.7-3.5.
Suspensions of the three crystalline forms were prepared in water or USP buffer solutions. The pH of the suspensions was adjusted through the addition of 0.1 M HCl or 0.1 M NaOH. For the preparation of suspensions with a pH of 0.5 or lower, the pH was adjusted using 1 M HCL.
The suspensions were then allowed to equilibrate at room temperature (about 21° C. to about 23° C.) for 48 hours. After equilibration the solid phases were separated from the liquid phases by centrifugation, subsequently dried and then analyzed by XRPD. The concentration of deuterium-enriched (R)-pioglitazone or pioglitazone in the liquid phases (mother liquors) was determined by HPLC (see HPLC method described in Example 5).

Data set [2] can be described thus: 13-week dog toxicology study, toxicokinetics on day 91. The conditions noted are these: Day 91, 10 mg/kg/day.
A further data set can be described thus: in vivo. The conditions noted are these: beagle, dog, plasma, po, 10 mg/kg/day.
Data set [3] is described as follows: Solubility of crystalline HCl salt in various solvents (visual dissolution). Format: physicochemical. Conditions: 22 °C, thermodynamic from solid, ambient temperature, visual inspection. The method, then: […]; (ii) the resulting mixtures were then stirred at ambient temperature (about 21° C. to about 23° C.) for 5-10 minutes; (iii) the mixtures were then visually inspected to determine if the crystalline HCl salt had completely dissolved; (iv) if the crystalline HCl salt had not completely dissolved more solvent was added until complete dissolution occurred. Quantitative testing: (i) 100 mg of crystalline HCl salt was added to 4 vol. of each solvent (0.4 mL) dimethylformamide, methanol and DMSO; (ii) the resulting mixtures were then stirred at ambient temperature (about 20° C. to about 25° C.) for 5-10 minutes; (iii) the mixtures were then visually inspected to determine if the crystalline HCl salt had completely dissolved; (iv) if the crystalline HCl salt had not completely dissolved more solvent was added until complete dissolution occurred.
The solubilities were then calculated using the total quantity of crystalline HCl salt and solvent used for each solvent.

A short description of data set [4]: Dog pharmacokinetic (PK) study, single oral administration. The format is in vivo, Beagle dogs. The conditions noted are these: dog, in vivo; for AUC0-24, Total Pio / AUC0-24, Total R-pio / AUC0-24, Total S-pio / Cmax, Total Pio / Cmax, Total R-pio / Cmax, Total S-pio / T1/2z, Total Pio / T1/2z, Total R-pio / T1/2z, Total S-pio / Tmax, Total Pio / Tmax, Total R-pio / Tmax, Total S-pio: po. The procedure: The 3 Beagle male dogs were fasted before dosing. Then all test drugs were administered by the oral route using API in a capsule. [table] Food was given no sooner than one hour after dose administration on the days of treatment. Each administration was separated by a wash-out period of at least 2 days. […] Predose (just before dosing) and then […] after dosing.

The nature of data set [5]: Solubility of crystalline DCl salt in various solvents (suspension, HPLC). The conditions noted are these: 24 hours at room temperature. The format is physicochemical. The text has this: Aliquots of the mother liquor were then taken from each suspension and analyzed by HPLC to determine the concentration of deuterium-enriched (R)-pioglitazone in the different solvents. [table]

Setting [6] is: Water, filtered mother liquor pH 1.6.
Where [7] appears, read: pH 1.6, simulated gastric fluid.

Where a name gives a salt, the structure may show the parent alone. Read-outs that look alike come from different tables or passages of the source. Marks after values point to notes of the source that are not given here.

As a reminder, the Solubility is the dissolved amount per volume that the medium holds. Broadly, the AUC(0-t) is the area under the concentration-time curve up to a stated or last time point. Broadly, the solubility is how much of the substance goes into solution per volume.

Regarding `[2H]Cl.[2H]N1C(=O)SC([2H])(Cc2ccc(OCCc3ccc(CC)cn3)cc2)C1=O` (racemic) [deuterium-enriched pioglitazone], the Solubility is 5240 µg/mL in data set [1] (Water, filtered mother liquor pH 0.7); 2490 µg/mL in data set [1] (Water, filtered mother liquor pH 0.9); 1630 µg/mL in data set [1] (Water, filtered mother liquor pH 1.1); 420 µg/mL in data set [1] (setting [6]); less than 30 µg/mL in data set [1] (Water, filtered mother liquor pH 3.1); less than 30 µg/mL in data set [1] (Water, filtered mother liquor pH 4.8). Moreover, the “pH-dependent solubility behavior (in words)” value in data set [1] (pH range 0.7-3.5) is “behavior similar to that of pioglitazone HCl”.

For the compound `CCc1ccc(CCOc2ccc(CC3SC(=O)NC3=O)cc2)nc1` (racemic) [Pioglitazone], the “AUC0-24, ss dose normalized, total pioglitazone” value in data set [2] (female dogs (F)) was determined as 562 ng·h/mL; in data set [2] (male dogs (M)) it was 297 ng·h/mL. The AUC(0-t) in “in vivo” (female) is 5620 ng·h/mL; in the data set “in vivo” (male), 2970 ng·h/mL.

With `[2H][C@]1(Cc2ccc(OCCc3ccc(CC)cn3)cc2)SC(=O)NC1=O` [deuterium-enriched (R)-pioglitazone], the solubility at 48 h in data set [1] (pH 0.5, aqueous buffer) is 2330 µg/mL; in data set [1] (pH 0.6, aqueous buffer), 2600 µg/mL; in data set [1] (pH 0.7, aqueous buffer), 3270 µg/mL; in data set [1] (pH 0.8, aqueous buffer) it was 3770 µg/mL; in data set [1] (pH 1.4, simulated gastric fluid) it was 5250 µg/mL; in data set [1] (setting [7]), 3470 µg/mL. Moreover, the solubility at 48 h in data set [1] (pH 3, aqueous buffer) is 200 µg/mL; in data set [1] (pH 5.7, aqueous buffer), less than 50 µg/mL. Further, in data set [1] (pH 4), the “Solubility (in words)” value is “practically insoluble”. Also, the Solubility in data set [3] (organic solvent or mixture, DMSO) is more than 50000 µg/mL; in data set [3] (organic solvent or mixture, Dichloromethane) it was 5000 to 10000 µg/mL; in data set [3] (organic solvent or mixture, Ethanol), 5000 to 10000 µg/mL; in data set [3] (organic solvent or mixture, Ethyl acetate), 5000 to 10000 µg/mL; in data set [3] (organic solvent or mixture, Methanol), approximately 50000 µg/mL; in data set [3] (organic solvent or mixture, N,N-dimethylformamide), approximately 50000 µg/mL. The Solubility in data set [3] (organic solvent or mixture, Tetrahydrofuran) was 5000 to 10000 µg/mL; in data set [3] (organic solvent or mixture, Toluene), 5000 to 10000 µg/mL; in data set [3] (Water), 5000 to 10000 µg/mL.

Consider `CCc1ccc(CCOc2ccc(CC3SC(=O)NC3=O)cc2)nc1` (centres unmarked) [Pioglitazone HCl Salt, pioglitazone hydrochloride, reference compound], for which, in data set [1], the “Solubility (in words)” value is “practically insoluble”. Moreover, the solubility at 48 h in data set [1] (pH 0.6, aqueous buffer) was 2880 µg/mL; in data set [1] (pH 0.7, aqueous buffer), 4000 µg/mL; in data set [1] (pH 1.2, simulated gastric fluid), 670 µg/mL; in data set [1] (setting [7]), 440 µg/mL; in data set [1] (pH 3, aqueous buffer) it was 30 µg/mL; in data set [1] (pH 4.5, aqueous buffer), less than 30 µg/mL. The solubility at 48 h was less than 30 µg/mL in data set [1] (pH 4.6, aqueous buffer); less than 30 µg/mL in data set [1] (pH 5.6, aqueous buffer); less than 30 µg/mL in data set [1] (pH 6.6, aqueous buffer); less than 30 µg/mL in data set [1] (pH 7.6, aqueous buffer).

In the case of `[2H]C1(Cc2ccc(OCCc3ccc(CC)cn3)cc2)SC(=O)NC1=O` (racemic) [PXL061, deuterium-enriched pioglitazone], the “Frel vs PXL061 (relative oral bioavailability), Total Pioglitazone” value in data set [4] turned out to be 1. In data set [4] (10 mg/kg), the “AUC0-24, Total Pio” value was found to be 4800 ng·h/mL; the “AUC0-24, Total R-pio” value turned out to be 2650 ng·h/mL; the “AUC0-24, Total S-pio” value came to 2150 ng·h/mL; the “Cmax, Total Pio” value is recorded as 1310 ng/mL. In addition, in data set [4] (10 mg/kg), the “Cmax, Total R-pio” value was found to be 638 ng/mL; the “Cmax, Total S-pio” value turned out to be 683 ng/mL; the “T1/2z, Total Pio” value stood at 4.03 h; the “T1/2z, Total R-pio” value was determined as 2.78 h. For the same compound, in data set [4] (10 mg/kg), the “T1/2z, Total S-pio” value was determined as 3.61 h; the “Tmax, Total Pio” value is on record as 1 h; the “Tmax, Total R-pio” value was determined as 1 h; the “Tmax, Total S-pio” value is on record as 1 h.

Consider `[2H]Cl.[2H]N1C(=O)S[C@]([2H])(Cc2ccc(OCCc3ccc(CC)cn3)cc2)C1=O` [deuterium-enriched (R)-pioglitazone], for which the Solubility in data set [1] (Acetate Buffer, filtered mother liquor pH 4.4) was less than 50 µg/mL; in data set [1] (Phosphate Buffer, filtered mother liquor pH 6.5) it was less than 50 µg/mL; in data set [1] (Phosphate Buffer, filtered mother liquor pH 7.4) it was less than 50 µg/mL; in data set [1] (Water, filtered mother liquor pH 0.4) it was 1600 µg/mL; in data set [1] (Water, filtered mother liquor pH 0.6), 3010 µg/mL; in data set [1] (Water, filtered mother liquor pH 0.8) it was 3300 µg/mL. The Solubility in data set [1] (Water, filtered mother liquor pH 1.4) is 4540 µg/mL; in data set [1] (setting [6]), 2580 µg/mL; in data set [1] (Water, filtered mother liquor pH 2.4), 390 µg/mL; in data set [1] (Water, filtered mother liquor pH 3.7), 50 µg/mL; in data set [1] (Water, filtered mother liquor pH 6.8), less than 50 µg/mL; in data set [5] (2-propanol), 500 µg/mL. The Solubility was 500 µg/mL in data set [5] (3-pentanone); 500 µg/mL in data set [5] (Acetone); 2000 µg/mL in data set [5] (Chloroform); 225900 µg/mL in data set [5] (DMSO); 4400 µg/mL in data set [5] (Ethanol); less than 100 µg/mL in data set [5] (Ethyl acetate). For the same compound, the Solubility was 45000 µg/mL in data set [5] (Methanol); 46400 µg/mL in data set [5] (N,N-dimethylformamide); 1800 µg/mL in data set [5] (Tetrahydrofuran); 7700 µg/mL in data set [5] (Water); less than 100 µg/mL in data set [5] (tert-butyl methyl ether). The “Solubility (in words)” value in data set [1] (above pH 4) is listed as “practically insoluble”.

`[2H][C@@]1(Cc2ccc(OCCc3ccc(CC)cn3)cc2)SC(=O)NC1=O` [PXL064, deuterium-enriched (S)-pioglitazone]: in data set [4] (5 mg/kg), the “AUC0-24, Total Pio” value was 1410 ng·h/mL; the “AUC0-24, Total R-pio” value is 203 ng·h/mL; the “AUC0-24, Total S-pio” value was 1200 ng·h/mL; the “Cmax, Total Pio” value came to 588 ng/mL. Further, in data set [4] (5 mg/kg), the “Cmax, Total R-pio” value is 54.0 ng/mL; the “Cmax, Total S-pio” value is 538 ng/mL; the “T1/2z, Total Pio” value is given as 1.73 h; the “T1/2z, Total R-pio” value is listed as 1.91^a h. In data set [4] (5 mg/kg), the “T1/2z, Total S-pio” value is given as 1.75 h; the “Tmax, Total Pio” value is listed as 2 h; the “Tmax, Total R-pio” value is on record as 2 h; the “Tmax, Total S-pio” value was 2 h.
